# Test results as given in patent US10294234B2, “HIV inhibitor compounds” (priority 2017, dated 2019).
# Assays:
# [1] = 1 uM compound, NADPH
# How it was run: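 Each compound (1 uM) is incubated in duplicate with 0.5 mg/mL liver microsomal protein from dog, rat or human plus NADPH-regenerating system. Samples taken at 2, 12, 25, 45 and 65 minutes are deproteinised and quantified by LC/MS/MS. Half-life gives Clint.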
# in vivo = details: rat, in vivo
# How it was run: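 Male SD rats (n=3/group, 0.27–0.32 kg), fasted overnight, given 0.5 or 1.0 mg/kg by 30-min IV infusion, or by oral gavage. Serial plasma samples (EDTA-K2) over 24 h measured by LC/MS/MS; non-compartmental PK analysis.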
smiles,measurement,setting,value
"COC(=O)N[C@H](C(=O)N[C@@H](Cc1ccc(C#Cc2ccc(N3CC4CCC(C3)N4C3COC3)nc2)cc1)[C@@H](O)CN(Cc1c(F)cc(-c2ccn(C(F)F)n2)cc1F)NC(=O)[C@@H](NC(=O)OC)C(C)(C)C(F)(F)F)C(C)(C)C(F)(F)F [Example 58, Methyl ((5S,8S,9S,14S)-11-(4-(1-(difluoromethyl)-1H-pyrazol-3-yl)-2,6-difluorobenzyl)-16,16,16-trifluoro-9-hydroxy-15,15-dimethyl-8-(4-((6-(8-(oxetan-3-yl)-3,8-diazabicyclo[3.2.1]octan-3-yl)pyridin-3-yl)ethynyl)benzyl)-3,6,13-trioxo-5-(1,1,1-trifluoro-2-methylpropan-2-yl)-2-oxa-4,7,11,12-tetraazahexadecan-14-yl)carbamate]",Human Pred Cl.,[1]; human liver microsomes 0.5 mg/mL,<0.11 L/H/kg
same,Rat. Pred. Cl.,[1]; rat liver microsomes 0.5 mg/mL,0.24 L/H/kg
same,Vd,"in vivo; male, SD, iv",6.68 L/kg
same,RAT PO F,"in vivo; male, SD, po, 2.5 mg/kg",37.2%
same,RAT IV CL,in vivo; iv,8 mL/min/kg
same,RAT IV T1/2,in vivo; iv,12.8 h
